Experimental data taken from PubChem BioAssay AID328 (DTP/NCI, 2004).
Toxic doses and inconclusive results are not listed.

System: BDF1 mice, P388 leukemia ip, median survival T/C
Experiment: NCI In Vivo Anticancer Drug Screen. Data for tumor model P388 Leukemia (intraperitoneal) in B6D2F1 (BDF1) mice
Settings: endpoint: median survival time, higher = longer survival
Outline: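 Vehicle-dosed animals serve as the reference; survival of compound-dosed, tumour-implanted mice is divided by it.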

[1] = dose: 100.0 mg/kg/injection, schedule: Q04DX003 (ip), vehicle: saline sonified
[2] = dose: 100.0 mg/kg/injection, schedule: Q01DX009 (ip), vehicle: saline with Tween-80
[3] = dose: 200.0 mg/kg/injection, schedule: Q01DX009 (ip), vehicle: saline with Tween-80
[4] = dose: 400.0 mg/kg/injection, schedule: Q01DX009 (ip), vehicle: saline with Tween-80
[5] = dose: 100.0 mg/kg/injection, schedule: Q01DX009 (ip), vehicle: saline
[6] = dose: 200.0 mg/kg/injection, schedule: Q01DX009 (ip), vehicle: saline
[7] = dose: 25.0 mg/kg/injection, schedule: Q01DX009 (ip), vehicle: saline with Tween-80
[8] = dose: 50.0 mg/kg/injection, schedule: Q01DX009 (ip), vehicle: saline with Tween-80
[9] = dose: 100.0 mg/kg/injection, schedule: Q04DX003 (ip), vehicle: saline with Tween-80

Structure (SMILES): CN1CCN=C1c1ccc(NC(=O)c2ccc(C(=O)Nc3ccc(C4=NCCN4C)cc3)c(N)c2)cc1
- T/C (dose: 0.5 mg/kg/injection, schedule: Q01DX009 (ip), vehicle: saline with Tween-80): 150 % of control
- T/C (dose: 1.0 mg/kg/injection, schedule: Q01DX009 (ip), vehicle: saline with Tween-80): 154 % of control
- T/C (dose: 2.0 mg/kg/injection, schedule: Q01DX009 (ip), vehicle: saline with Tween-80): 181 % of control
- T/C (dose: 2.0 mg/kg/injection, schedule: Q01DX009 (ip), vehicle: saline): 154 % of control
- T/C (dose: 3.0 mg/kg/injection, schedule: Q01DX009 (ip), vehicle: saline): 166 % of control

Structure (SMILES): Cc1ccc(NC(=S)NC(=O)c2ccco2)cc1Cl
- T/C (dose: 100.0 mg/kg/injection, schedule: Q04DX003 (ip), vehicle: Klucel (hydroxypropylcellulose) (HPC)): 100 % of control
- T/C (dose: 200.0 mg/kg/injection, schedule: Q04DX003 (ip), vehicle: Klucel (hydroxypropylcellulose) (HPC)): 120 % of control
- T/C (dose: 400.0 mg/kg/injection, schedule: Q04DX003 (ip), vehicle: Klucel (hydroxypropylcellulose) (HPC)): 90 % of control

Structure (SMILES): FC(F)(F)c1ccc2nc(CI)c(CI)nc2c1
- T/C (dose: 1.37 mg/kg/injection, schedule: Q01DX009 (ip), vehicle: saline): 115 % of control
- T/C (dose: 1.5 mg/kg/injection, schedule: Q01DX009 (ip), vehicle: Klucel (hydroxypropylcellulose) (HPC)): 105 % of control
- T/C (dose: 2.05 mg/kg/injection, schedule: Q01DX009 (ip), vehicle: saline): 115 % of control
- T/C (dose: 3.0 mg/kg/injection, schedule: Q01DX009 (ip), vehicle: Klucel (hydroxypropylcellulose) (HPC)): 105 % of control
- T/C (dose: 6.0 mg/kg/injection, schedule: Q01DX009 (ip), vehicle: Klucel (hydroxypropylcellulose) (HPC)): 111 % of control
- T/C (dose: 12.0 mg/kg/injection, schedule: Q01DX009 (ip), vehicle: Klucel (hydroxypropylcellulose) (HPC)): 122 % of control
- T/C (dose: 12.0 mg/kg/injection, schedule: Q01DX009 (ip), vehicle: saline): 105 % of control
- T/C (dose: 12.0 mg/kg/injection, schedule: Q04DX003 (ip), vehicle: Klucel (hydroxypropylcellulose) (HPC)): 118 % of control
- T/C (dose: 12.5 mg/kg/injection, schedule: Q01DX009 (ip), vehicle: saline with Tween-80): 105 % of control
- T/C (dose: 18.0 mg/kg/injection, schedule: Q01DX009 (ip), vehicle: saline): 100 % of control
- T/C (dose: 24.0 mg/kg/injection, schedule: Q01DX009 (ip), vehicle: Klucel (hydroxypropylcellulose) (HPC)): 122 % of control
- T/C (dose: 25.0 mg/kg/injection, schedule: Q04DX003 (ip), vehicle: Klucel (hydroxypropylcellulose) (HPC)): 109 % of control
- T/C (dose: 27.0 mg/kg/injection, schedule: Q01DX009 (ip), vehicle: saline): 105 % of control
- T/C (dose: 28.0 mg/kg/injection, schedule: Q01DX009 (ip), vehicle: saline): 100 % of control
- T/C (dose: 40.0 mg/kg/injection, schedule: Q01DX009 (ip), vehicle: saline): 89 % of control
- T/C (dose: 48.0 mg/kg/injection, schedule: Q01DX009 (ip), vehicle: Klucel (hydroxypropylcellulose) (HPC)): 122 % of control

Structure (SMILES): Nc1ccc(OCc2ccc(S(=O)(=O)F)c(Cl)c2)c(Cl)c1
- T/C (dose: 100.0 mg/kg/injection, schedule: Q01DX001 (ip), vehicle: saline): 103 % of control
- T/C (dose: 200.0 mg/kg/injection, schedule: Q01DX001 (ip), vehicle: saline): 100 % of control
- T/C (dose: 400.0 mg/kg/injection, schedule: Q01DX001 (ip), vehicle: saline): 92 % of control

Structure (SMILES): O=C(O)c1ccccc1CBr
- T/C [1]: 104 % of control
- T/C (dose: 200.0 mg/kg/injection, schedule: Q04DX003 (ip), vehicle: saline sonified): 104 % of control
- T/C (dose: 400.0 mg/kg/injection, schedule: Q04DX003 (ip), vehicle: saline sonified): 100 % of control

Structure (SMILES): CC(=O)OCC(=O)[C@@]1(O)CC[C@H]2[C@@H]3CCC4=CC(=O)CC[C@]4(C)[C@H]3[C@@H](O)C[C@@]21C
- T/C (dose: 90.0 mg/kg/injection, schedule: Q01DX010 (sc), vehicle: steriod suspending solution): 100 % of control
- T/C [2]: 100 % of control
- T/C (dose: 130.0 mg/kg/injection, schedule: Q01DX010 (sc), vehicle: steriod suspending solution): 88 % of control
- T/C [3]: 110 % of control
- T/C [4]: 90 % of control

Structure (SMILES): O=C(c1ccccc1)C1(Br)CCC1
- T/C (dose: 100.0 mg/kg/injection, schedule: Q01DX009 (ip), vehicle: saline sonified): 91 % of control
- T/C (dose: 200.0 mg/kg/injection, schedule: Q01DX009 (ip), vehicle: saline sonified): 100 % of control
- T/C (dose: 400.0 mg/kg/injection, schedule: Q01DX009 (ip), vehicle: saline sonified): 95 % of control

Structure (SMILES): O=C(O)/C=C\C(=O)Nc1ccccc1NC(=O)/C=C/C(=O)O
- T/C [5]: 104 % of control
- T/C [6]: 113 % of control
- T/C (dose: 400.0 mg/kg/injection, schedule: Q01DX009 (ip), vehicle: saline): 109 % of control

Structure (SMILES): COc1c(Cl)cc2c(c1OC)N(C)C1N3C(=O)C4(C)SSC3(C(=O)N4C)C(O)C21O (centres undefined)
- T/C (dose: 0.12 mg/kg/injection, schedule: Q01DX009 (ip), vehicle: Klucel (hydroxypropylcellulose) (HPC)): 86 % of control
- T/C (dose: 0.25 mg/kg/injection, schedule: Q01DX009 (ip), vehicle: Klucel (hydroxypropylcellulose) (HPC)): 109 % of control

Structure (SMILES): NC(=S)N/N=C/C(=N\NC(N)=S)C(O)C(O)C(O)CO (centres undefined)
- T/C [7]: 100 % of control
- T/C [8]: 95 % of control
- T/C [2]: 100 % of control
- T/C [1]: 100 % of control

Structure (SMILES): Nc1cc(=O)[nH]n1-c1ccccc1
- T/C [8]: 101 % of control
- T/C [2]: 103 % of control
- T/C [3]: 98 % of control

Structure (SMILES): NNc1nccnc1Cl
- T/C (dose: 100.0 mg/kg/injection, schedule: Q04DX003 (ip), vehicle: saline): 105 % of control
- T/C (dose: 200.0 mg/kg/injection, schedule: Q04DX003 (ip), vehicle: saline): 103 % of control

Structure (SMILES): CC(c1ccccc1)N1COc2ccc3ccccc3c2C1 (centres undefined)
- T/C [2]: 100 % of control
- T/C [3]: 104 % of control
- T/C [4]: 113 % of control

Structure (SMILES): C=C1C(c2ccccc2)C(c2ccccc2)=C(C)C(c2ccccc2)=CN1C(=O)c1ccccc1 (centres undefined)
- T/C (dose: 50.0 mg/kg/injection, schedule: Q01DX009 (ip), vehicle: Klucel (hydroxypropylcellulose) (HPC)): 97 % of control
- T/C (dose: 100.0 mg/kg/injection, schedule: Q01DX009 (ip), vehicle: Klucel (hydroxypropylcellulose) (HPC)): 88 % of control
- T/C (dose: 200.0 mg/kg/injection, schedule: Q01DX009 (ip), vehicle: Klucel (hydroxypropylcellulose) (HPC)): 95 % of control

Structure (SMILES): C=C(C)C(=O)OC1C(C(C)CCCO)=C(CO)CC2OC(=O)C(=C)C21 (centres undefined)
- T/C (dose: 2.0 mg/kg/injection, schedule: Q01DX009 (ip), vehicle: saline + alcohol): 104 % of control
- T/C (dose: 4.0 mg/kg/injection, schedule: Q01DX009 (ip), vehicle: saline + alcohol): 109 % of control
- T/C (dose: 8.0 mg/kg/injection, schedule: Q01DX009 (ip), vehicle: saline + alcohol): 114 % of control
- T/C (dose: 16.0 mg/kg/injection, schedule: Q01DX009 (ip), vehicle: saline + alcohol): 109 % of control
- T/C (dose: 32.0 mg/kg/injection, schedule: Q01DX009 (ip), vehicle: saline + alcohol): 152 % of control

Structure (SMILES): c1ccc(C2CC3CCCCN3O2)cc1 (centres undefined)
- T/C (dose: 100.0 mg/kg/injection, schedule: Q04DX002 (ip), vehicle: saline with Tween-80): 94 % of control
- T/C (dose: 200.0 mg/kg/injection, schedule: Q04DX002 (ip), vehicle: saline with Tween-80): 103 % of control
- T/C (dose: 400.0 mg/kg/injection, schedule: Q04DX002 (ip), vehicle: saline with Tween-80): 86 % of control

Structure (SMILES): CCC(=O)c1ccc(OCC(O)CN2CCC(O)(c3ccccc3)CC2)cc1 (centres undefined)
- T/C [7]: 111 % of control
- T/C (dose: 25.0 mg/kg/injection, schedule: Q04DX003 (ip), vehicle: saline with Tween-80): 109 % of control
- T/C [8]: 103 % of control
- T/C (dose: 50.0 mg/kg/injection, schedule: Q04DX003 (ip), vehicle: saline with Tween-80): 109 % of control
- T/C [2]: 88 % of control
- T/C [9]: 104 % of control

Structure (SMILES): CC(C)(N)CNC(C)(C)CO
- T/C (dose: 50.0 mg/kg/injection, schedule: Q01DX009 (ip), vehicle: saline): 95 % of control
- T/C [5]: 111 % of control
- T/C [6]: 92 % of control

Structure (SMILES): CCOCc1cccc2ccccc12
- T/C [9]: 109 % of control
- T/C (dose: 200.0 mg/kg/injection, schedule: Q04DX003 (ip), vehicle: saline with Tween-80): 100 % of control
- T/C (dose: 400.0 mg/kg/injection, schedule: Q04DX003 (ip), vehicle: saline with Tween-80): 118 % of control

Structure (SMILES): Nc1nc(N)c2cc(CNc3ccc(C(=O)NC(CC(=O)O)CC(=O)O)cc3)ccc2n1
- T/C (dose: 132.0 mg/kg/injection, schedule: Q01DX009 (ip), vehicle: saline with Tween-80): 90 % of control
